Experimental data taken from US8609347B2, “Biomarkers for prenatal diagnosis of congenital cytomegalovirus” (priority 2007, dated 2013).

Key:
Type in all cases: cell-based, human
CEACAM1 = CEACAM1 expression by flow cytometry in HUVEC; details: treatment with antioxidants; ratios of mean fluorescence intensity to control cells
From the text: FIG. 6A-D: CEACAM protein increases in CMV-infected HUVEC. (A) (Left panel) Flow cytometric analysis of CEACAM1 surface expression. Typical histograms from control and infected human umbilical vein endothelial cells (HUVEC) are shown. Shaded areas represent expression of specific proteins, and lines represent isotype control. (Middle panel) Graphs represent mean fluorescence intensity (mean±SE). Statistically significant differences are indicated (*p<0.05, **p<0.001). (Right panel) VR1814-infected HUVEC increase intracellular CEACAM1 protein. Permeabilized cells were analyzed by flow cytometry. Shaded areas represent expression of specific proteins; lines represent isotype control. (B) CEACAM1 levels in conditioned medium measured by ELISA. Polyclonal and biotinylated CEACAM1-specific IgG (R&D Systems) were used for coating and detection, respectively. CEACAM1 was quantified with peroxidase-conjugated streptavidin. CEACAM1 concentration increased in conditioned medium from infected HUVEC (1 PFU/cell). Graphs represent mean value±SE (n=4). Statistically significant differences are indicated (*p<0.05). (C) Infected HUVEC and controls were immunostained for CEACAM1 and CMV gB. Please Note: cells without viral proteins express CEACAM1. […] Ratios of the mean fluorescence intensity were obtained with control cells.

integrin β6 = experiment: Surface expression of integrin αvβ6 by flow cytometry in CMV-infected HUVECs; details: 7 days, SB431542 0.1 to 1 μmol/L, Foscarnet 400 μmol/L, phosphonoacetic acid 100 μg/ml
Description: FIG. 20: Induction of integrin αvβ6 expression requires TGF-β signaling and viral DNA replication A: Infected HUVECs were cultured with or without chicken anti-TGF-β polyclonal antibody (20 μg/ml), chicken IgY isotype control antibody (control Ab, 20 μg/ml), the ALK5 kinase inhibitor SB431542 (0.5 μmol/L), or the vehicle DMSO for 7 days, and surface expression of integrin αvβ6 was analyzed by flow cytometric analysis. Typical histograms are shown. Shaded areas represent expression of specific proteins. Lines represent isotype control. Experiments were repeated at least two times. B: Surface expression of integrin αvβ6 was analyzed by flow cytometric analysis at 7 days after infection with or without viral DNA polymerase inhibitors, Foscarnet, and phosphonoacetic acid (PAA). Typical histograms are shown. Shaded areas represent expression of specific proteins. Lines represent isotype control. Experiments were repeated six times. C: Active TGF-β was not produced by infected HUVECs in the presence of viral DNA polymerase inhibitors. Equal numbers of TMLC TGF-β reporter cells and control (cont.) or infected HUVECs were cultured for 16 to 24 hours at 7 days after infection. Relative luciferase activity in cell lysates was defined as the measured activity divided by TMLC baseline activity. Representative data (mean±SE) are from four experiments done in triplicate.
The present example assesses how integrin β6 is induced on CMV infection in HUVECs. It has been reported that TGF-β1 induces de novo synthesis of integrin β6 in normal human keratinocytes (Zambruno et al., J Cell Biol, 129:853-865 (1995)) and strongly up-regulates its expression in primary cultures of human airway epithelial cells (Wang et al., Am J Respir Cell Mol Biol, 15:664-672 (1996)). […] HUVECs were cultured with the filtered conditioned medium for 8 days, and expression of integrin β6 was analyzed. […] It was then determined whether viral late gene expression is required for the up-regulation of integrin β6 in infected cells because the expression was observed only at late times after infection. […]

[1] = system: TGF-β1 activation in CMV-infected HUVECs; experiment: TGF-β bioassay: TMLC TGF-β reporter cells co-cultured with CMV-infected HUVECs, luciferase activity; details: 7 days after infection; Foscarnet 400 μmol/L or phosphonoacetic acid 100 μg/ml
From the text: FIG. 18: Integrin αvβ6-dependent TGF-β1 activation in CMV-infected HUVECs. A: TGF-β1 production by infected HUVECs. Conditioned medium was collected from control (open circles) and infected (filled circles) HUVECs at 1 to 9 days, and TGF-β1 was quantified by enzyme-linked immunosorbent assay. Results are the mean (±SE) of three experiments done in duplicate. Asterisks indicate the amount of TGF-β1 in infected HUVECs as compared with uninfected controls (*P<0.05, **P<0.01). B: Surface expression of TGF-β1 in HUVECs was analyzed by flow cytometry at 3, 7, and 10 days after infection and controls (cont). Typical histograms are shown. Shaded areas represent expression of specific proteins. Lines represent isotype control. Experiments were repeated at least three times. C: Total TGF-β1 was analyzed by flow cytometry using permeabilized cells at 3, 7, and 10 days after infection (inf.) and controls (cont). Left: Typical histograms at 10 days are shown. Shaded areas represent expression of specific proteins. Lines represent isotype control. Right: Results are the mean fluorescence intensity (±SE) of three experiments. Asterisks indicate expression in infected HUVECs as compared with uninfected controls (*P<0.05). D: TGF-β bioassay of active TGF-β produced by infected HUVECs. […] Relative luciferase activity in cell lysates was defined as the measured activity divided by TMLC baseline activity. […]

type IV collagen = experiment: Type IV collagen expression (flow cytometry, immunoblot) in CMV-infected HUVECs; details: infected HUVECs treated for 7 days
Description: FIG. 22: Increased type IV collagen synthesis by CMV infection was blocked by anti-TGF-β and anti-αvβ6 neutralizing antibodies. A: Surface expression of type IV collagen was analyzed by flow cytometric analysis at 10 days after infection. Typical histograms from control (cont.) and infected (inf.) HUVECs are shown. Shaded areas represent expression of specific proteins. Lines represent isotype control. B: The results represent the mean fluorescence intensity of type IV collagen (mean±SE) from three to seven experiments. Asterisks indicate surface expression in infected HUVECs as compared with uninfected controls (*P<0.01). C: Cell lysates from control (cont.) or infected (inf.) HUVECs at 3, 7, and 10 days after infection were fractionated by 8% SDS-PAGE and blotted on nitrocellulose. Filters were incubated with anti-type IV collagen (Col IV) and anti-actin (loading control) antibodies. D: Surface expression of type IV collagen was analyzed by flow cytometric analysis at 7 days without antibody (untreated) or with anti-TGF-β neutralizing antibody (1D11), function-blocking anti-αvβ6 antibody (3G9), or mouse IgG1 isotype control antibody (control Ab). Relative surface expression as expressed by mean fluorescence intensity was normalized for control HUVECs in the same experiment. Results are the mean (±SE) from three experiments. […]

fibronectin = experiment: Surface expression of fibronectin in CMV-infected HUVECs; details: late times after infection
From the text: TGF-β1 is a potent fibrotic factor responsible for the synthesis of ECM, and profibrotic TGF-β1 responses are induced primarily via ALK5/Smad3 signal transduction in normal fibroblasts (Ishida et al., J Invest Dermatol, 126:1733-1744 (2006)). TGF-β1 also potently promotes the synthesis and deposition of ECM in endothelial cells (Pepper, M. S., Cytokine Growth Factor Rev, 8:21-43 (1997)). […] Therefore, it was investigated in the present example whether CMV-activated TGF-β1 could increase ECM production and whether blocking TGF-β1 activation could prevent the effect. […] To evaluate the effect of inhibition of activation of TGF-β1 on CMV-induced profibrotic response, infected cells were treated with anti-TGF-β (1D11) and anti-αvβ6 (3G9) antibodies for 7 days. […] In addition, surface expression of fibronectin was increased at late times after infection, and was reduced by the ALK5 kinase inhibitor.

Smad3 phosphorylation = Smad3 phosphorylation by immunoblot in CMV-infected HUVECs; details: 8-day infected HUVECs; 1D11 40 μg/ml, 3G9 80 μg/ml, SB431542 2.5 μmol/L
Description: FIG. 19: CMV-infected HUVECs induce Smad3 phosphorylation. Cell lysates from control (cont.) or infected (inf.) HUVECs at 3, 7, and 10 days after infection were fractionated by 10% SDS-PAGE and blotted on nitrocellulose. Phosphorylation of Smad3 (pSmad3) and Smad1/5 (pSmad1/5) was analyzed by immunoblotting using phospho-specific Smad3 and Smad1/5/8 (pSmad1/5) antibodies. Equal loading of the gels was confirmed using Smad2/3, Smad1, and Smad5 protein levels. B: Effects of anti-TGF-β antibody, anti-αvβ6 antibody (3G9), and ALK5 kinase inhibitor on Smad3 phosphorylation. […]
Activated TGF-β1 can bind the type I receptors ALK1 and ALK5, which then phosphorylate the transcriptional activators Smad1/5 and Smad2/3, respectively (ten Dijke, P. and Hill, C. S., Trends Biochem Sci, 29:265-273 (2004)). To determine which of these TGF-β1 signaling pathways is activated in CMV-infected HUVECs, Smad1/5 and Smad3 phosphorylation was analyzed by immunoblotting with antibodies specific to Smads and their phosphorylated forms (FIG. 19A). Smad3 phosphorylation was strongly detected in 7- and 10-day-infected cells. […] Phosphorylated Smad1/5 was also weakly detected in the control. […]

SMILES | CEACAM1 expression (CEACAM1) | induction of integrin β6 (integrin β6) | induction of TMLC luciferase activity (active TGF-β) [1] | further results
OCCS [β-mercaptoethanol] | reduce CEACAM1 expression | – | – | –
O[C@H](CS)[C@H](O)CS (racemic) [DTT, dithiothreitol] | reduce CEACAM1 expression | – | – | –
O=C(O)P(=O)(O)O [Foscarnet] | – | blocked induction of integrin β6 | strongly suppressed | –
O=C(O)CP(=O)(O)O [phosphonoacetic acid] | – | blocked induction of integrin β6 | strongly suppressed | –
NC(=O)c1ccc(-c2nc(-c3ccc4c(c3)OCO4)c(-c3ccccn3)[nH]2)cc1 [SB431542] | – | nearly abolish it at high concentrations | – | surface expression of type IV collagen (type IV collagen): inhibitory effect; surface expression of fibronectin (fibronectin): reduced; Smad3 phosphorylation (Smad3 phosphorylation): prevented Smad3 phosphorylation
C[S+](C)[O-] [DMSO, dimethyl sulfoxide] | reduce CEACAM1 expression | – | – | –
